Measurements as given in US20110288314A1, “PHLOROGLUCINOL DERIVATIVES FROM ECKLONIA CAVA HAVING ANTI-HIV-1 INHIBITORY ACTIVITY” (priority 2008, published 2011).

What was measured:
[1] = biological target: T1, HIV-1 reverse transcriptase (Human immunodeficiency virus type 1 group M subtype B, UniProt P04585); experiment: Reverse transcriptase activity assay (fluorescence RT kit, viral lysate); assay type: biochemical; parameters: HIV-1 RT enzyme activity inhibited: dose or concentration left out as unconfirmed; details: RT from cell culture supernatant
T1 construct: HIV-1 reverse transcriptase in the viral lysate; endogenous in cells; host or cells: lysate of virus particles produced by infected cell culture (viral lysate)
Method: The activity of HIV-1 reverse transcriptase in the viral lysate was evaluated using a fluorescence RT assay kit (InvitroGen) according to the manufacturer's protocol. Briefly, 20 μl of reaction mixture containing a template/primer hybrid, poly(A)/d(T)16, and dTTP as a triphosphate substrate was added to the wells of amicrotiter plate and mixed with 5 μl of viral lysate containing various concentrations of 6,6′-bieckol. After incubation at 37° C. for 1 h, the reaction was stopped by the addition of 2 μl of 200 mM EDTA to each reaction. Fluorescence intensity was measured at 480 nm (excitation) and 520 nm (emission) with a GENiosmicroplate reader (Tecan Austria GmbH, Austria) after the addition of 173 μl of fluorescent PicoGreenreagent, which selectively binds to dsDNA or DNA-RNA heteroduplexes over single-stranded nucleic acids or free nucleotides.

HIV-1IIIB [2] = experiment: Western blot analysis of p24 / gag proteins in HIV-1IIIB infected H9 cells; assay type: cell-based
Method: 1×10^6 cells/ml H9 cells were cultured in cell culture plates. Following sample treatment, plates were incubated for 2 h and infected with HIV-1IIIB at 200 CCID50. After 96 h of incubation at 37° C., cells were pelleted at 1000 rpm for 10 min and supernatant was harvested. The cells were washed 3 times with PBS and lysed with 500 μl of lysis buffer containing 50 mM Tris-HCl (pH 7.5), 0.4% Nonidet P-40, 120 mM NaCl, 1.5 mM MgCl2, 2 mM phenylmethylsulfonyl fluoride, 80 μg/ml leupeptin, 3 mM NaF, and 1 mM DTT. Hundred micrograms of total protein was used for immunoblot analysis.
Culture supernatant containing virus was filtered through 0.22 μm filter, mixed with 30% polyethylene glycol (PEG) (50% v/v) with 0.4 M NaCl, and virus particles were pelleted at 15000 rpm for 45 min. The viral pellets were lysed, resuspended in SDS sample buffer and equal volume of viral lysates (20 μl) was loaded onto SDS gel. The proteins were subjected to denaturating SDSAGE in 25 mM Tris, 192 mM glycine, 0.1% SDS with a 4% stacking, and 10% separating gel. Separated proteins were transferred onto a nitrocellulose membrane, blocked in Tris buffered saline containing 0.1% (v/v) Tween 20 (TBS-T) and 5% skim milk powder. The membrane was probed with mouse anti-p24 monoclonal antibody (1:500, SantaCruz) and horseradish peroxidase (HRP)-conjugated anti-mouse IgG secondary antibody (1:5000, SantaCruz). […]

HIV-1IIIB [3] = experiment: Co-cultivation assay (C8166 cells with H9 cells chronically infected with HIV-1IIIB); assay type: cell-based; details: highest concentration treated; C8166 + H9/HIV-1IIIB, 72 h
Method: 3×10^4 C8166 cells were pre-treated with various concentrations of 6,6′-bieckol for 2 h and co-cultured with 3×10^3 H9 cells chronically infected with HIV-1IIIB at 37° C. in a humidified atmosphere of 5% CO2. After 72 h of incubation, the number of syncytia formed was counted using a microscope.

CEM-SS or H9 cells = experiment: Cell viability (MTT) assay; assay type: cell-based, human; details: up to 500 μM, 72 h
Method: H9 and H9/HIV-1IIIB cell lines were obtained through American Type of Culture Collection (Manassas, Va., USA). CEM-SS cell line from Dr. P. Nara and C8166 cell line from Dr. G. Farrar were provided by the EU Programme EVA Centre for AIDS Reagents, NIBSC, UK. CEM-SS, C8166, H9 and H9/HIV-1IIIB cell lines were grown in RPMI 1640 medium supplemented with 10% FBS, 100 μg of streptomycin per ml and 100 U of penicillin per ml. HIV-1IIIB virus stock was obtained from the culture supernatant of chronically infected H9/HIV-1IIIB cells. Cell-free virus was harvested from the supernatants by centrifugation and filtration through 0.22 μM filter. The virus stocks were stored as small aliquots at […] until use.
The cytotoxic concentrations of 6,6′-bieckol were determined by MTT assay, a method based on the reduction of 3-(4,5-dimethylthiazol-2-yl)-2,5-diphenyltetrazolium bromide (MTT). Four hundreds of microliters of medium containing CEM-SS or H9 cells were cultured into a 48-well plate at a density of 10^5 cells/ml. The plate was incubated overnight and treated with 100 μl of RPMI 1640 medium with/without 6,6′-bieckol. After 72 h of incubation, 100 μl of 500 μg/ml MTT was added to each well and the plate was incubated for another 4 h at 37° C. […] Optical density was measured at 540 nm with a microplate reader. […]

HIV-1IIIB [4] = experiment: HIV-1 p24 antigen capture ELISA in H9 cells; assay type: cell-based; parameters: dose or concentration left out as unconfirmed; details: ELISA (FIG. 1D)
Method: H9 cells (3×10^6 cells/ml) were incubated in the presence or absence of HIV-1IIIB for 1 h at 37° C. Cells were washed to remove unbound viruses and resuspended at 3×10^5 cells/ml in culture medium. Aliquots of 1 ml were placed in a 24-well culture plate containing an equal volume of medium with/without 6,6′-bieckol.
AZT was treated as positive control. In order to determine the amount of virus released to the medium, HIV-1 p24 antigen capture ELISA was carried out with a commercial kit (Perkin-Elmer Life Sciences, Boston, Mass.) according to the manufacturer's instructions.

## Oc1cc(O)cc(Oc2c(O)cc(O)c3c2Oc2c(O)cc(O)c(-c4c(O)cc(O)c5c4Oc4c(O)cc(O)c(Oc6cc(O)cc(O)c6)c4O5)c2O3)c1 [6,6′-bieckol]
[1]; 1 μM, read-out: HIV-1 RT enzyme inhibition
  inhibition at 1 µM: 50.5%
[1]
  HIV-1 RT enzyme activity inhibited: 96.33%
HIV-1IIIB [2]; Western blot
  protease inhibition judged from p55 gag related protein bands: did not inhibit the protease
HIV-1IIIB [2]; of 6,6′-bieckol vs AZT 5 μM (FIG. 2C)
  inhibition of p24 antigen production versus AZT: comparable to that of AZT
HIV-1IIIB [3]
  inhibition of syncytia formation in co-cultivation assay: around 80%
CEM-SS or H9 cells
  cytotoxicity: no cytotoxicity
HIV-1IIIB [4]
  inhibition of production of p24 antigen: more than 90%
